Experimental findings from US12673961B2 (Agios Pharmaceuticals, Inc., priority 2022, dated 2026) are described below.

In this assay the target is T1, human PAH with the R408W mutation (Homo sapiens, UniProt P00439, R408W).
T1 construct: expressed in transfected cells
T1 sequence (P00439 1-452 R408W): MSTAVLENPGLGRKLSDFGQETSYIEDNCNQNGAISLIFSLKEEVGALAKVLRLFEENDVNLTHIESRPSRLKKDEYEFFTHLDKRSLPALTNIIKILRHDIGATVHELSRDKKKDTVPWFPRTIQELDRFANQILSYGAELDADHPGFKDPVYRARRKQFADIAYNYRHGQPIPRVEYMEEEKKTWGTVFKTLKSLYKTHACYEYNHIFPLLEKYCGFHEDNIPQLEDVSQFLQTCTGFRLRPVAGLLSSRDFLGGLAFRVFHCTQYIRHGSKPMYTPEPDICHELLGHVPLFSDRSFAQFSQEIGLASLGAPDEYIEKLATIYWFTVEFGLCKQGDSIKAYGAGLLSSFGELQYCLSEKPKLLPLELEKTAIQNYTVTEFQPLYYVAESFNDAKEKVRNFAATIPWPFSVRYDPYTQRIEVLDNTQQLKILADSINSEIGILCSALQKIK
Kind of assay: Cell Based Phenylalanine Flux Assay.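 Note: Ten-point dose curve from 2-fold serial dilutions, run in duplicate at 0.5% DMSO final, tracer step used 20 µM sepiapterin and 800 µM labeled phenylalanine.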 The following applies: A375 cells expressing human R408W PAH; 24 hrs with compound, then sepiapterin and 13C9,15N-Phenylalanine for 4 hours; 13C-Tyrosine by LC-MS; average where tested multiple times; read-out: AC50.
Method: Compounds were resuspended in DMSO, and 2-fold serial dilutions were performed to generate a 10-point dose curve. Compounds were added to plated cells in a total volume of 100 μl, and a final DMSO concentration of 0.5%. Each compound was tested in duplicate. Following compound addition, cells were placed in a 5% CO2, 37° C. tissue culture incubator for 24 hrs. […] 20 μM sepiapterin and 800 μM 13C9,15N-Phenylalanine were added. After 4 hours, cell media was removed. An aliquot of 10 μl of cell media was combined with 200 μl of extraction buffer (80% acetonitrile/20% H2O) for each well. Determination of ^13C-Tyrosine concentration was assessed by liquid chromatography mass spectrometry.
Where a compound was tested multiple times, the average value of the tests is reported.
`Cn1cc(-c2nc(C3CC3)c(C(=O)N3CCc4[nH]cnc4[C@H]3c3cc4c(C(F)(F)F)cccn4n3)o2)cn1` [Example 2116, (S)-(4-cyclopropyl-2-(1-methyl-1H-pyrazol-4-yl)oxazol-5-yl)(4-(4-(trifluoromethyl)pyrazolo[1,5-a]pyridin-2-yl)-1,4,6,7-tetrahydro-5H-imidazo[4,5-c]pyridin-5-yl)methanone]: the AC50 is less than 500 nM.

With `Cn1cc(-c2nc(C3CC3)c(C(=O)N3CCc4[nH]cnc4[C@@H]3c3cc4c(C(F)(F)F)cccn4n3)o2)cn1` [Example 2117, (R)-(4-cyclopropyl-2-(1-methyl-1H-pyrazol-4-yl)oxazol-5-yl)(4-(4-(trifluoromethyl)pyrazolo[1,5-a]pyridin-2-yl)-1,4,6,7-tetrahydro-5H-imidazo[4,5-c]pyridin-5-yl)methanone], the AC50 was 1000 to 5000 nM.

As to `Cc1cccn2nc([C@H]3c4nc[nH]c4CCN3C(=O)c3oc(-c4ccccn4)nc3C3CC3)cc12` [Example 2121, (R)-(4-cyclopropyl-2-(pyridin-2-yl)oxazol-5-yl)(4-(4-methylpyrazolo[1,5-a]pyridin-2-yl)-1,4,6,7-tetrahydro-5H-imidazo[4,5-c]pyridin-5-yl)methanone], the AC50 fell in the range of 1000 to 5000 nM.

Turning to `O=C(c1oc(-c2ccccn2)nc1C1CC1)N1CCc2[nH]cnc2[C@H]1c1cc2c(C(F)(F)F)cccn2n1` [Example 2124, (S)-(4-cyclopropyl-2-(pyridin-2-yl)oxazol-5-yl)(4-(4-(trifluoromethyl)pyrazolo [1,5-a]pyridin-2-yl)-1,4,6,7-tetrahydro-5H-imidazo[4,5-c]pyridin-5-yl)methanone], the AC50 was less than 500 nM.

With `Cc1cccn2nc([C@@H]3c4nc[nH]c4CCN3c3ccccn3)cc12` [Example 2127, (S)-4-(4-methylpyrazolo [1,5-a]pyridin-2-yl)-5-(pyridin-2-yl)-4,5,6,7-tetrahydro-1H-imidazo[4,5-c]pyridine], the AC50 is less than 500 nM.

For the compound `FC(F)(F)c1ccc(N2CCc3[nH]cnc3[C@H]2c2cc3cccc(Cl)n3n2)nc1` [Example 2136, (S)-4-(7-chloropyrazolo [1,5-a]pyridin-2-yl)-5-(5-(trifluoromethyl)pyridin-2-yl)-4,5,6,7-tetrahydro-1H-imidazo[4,5-c]pyridine], the AC50 is less than 500 nM.

In the case of `CC(C)c1cccn2nc([C@@H]3c4nc[nH]c4CCN3c3nnc(C(F)(F)F)o3)cc12` [Example 2147, (S)-2-(4-(4-isopropylpyrazolo [1,5-a]pyridin-2-yl)-1,4,6,7-tetrahydro-5H-imidazo [4,5-c]pyridin-5-yl)-5-(trifluoromethyl)-1,3,4-oxadiazole], the AC50 was less than 500 nM.

`CC(C)c1cccn2nc([C@@H]3c4nc[nH]c4CCN3c3ccc(C(F)(F)F)cn3)cc12` [Example 2148, (S)-4-(4-isopropylpyrazolo [1,5-a]pyridin-2-yl)-5-(5-(trifluoromethyl)pyridin-2-yl)-4,5,6,7-tetrahydro-1H-imidazo[4,5-c]pyridine]: the AC50 was less than 500 nM.

On to `FC(F)Oc1cccn2nc([C@H]3c4nc[nH]c4CCN3c3nnc(C(F)(F)F)o3)cc12` [Example 2154, (R)-2-(4-(4-(difluoromethoxy)pyrazolo[1,5-a]pyridin-2-yl)-1,4,6,7-tetrahydro-5H-imidazo[4,5-c]pyridin-5-yl)-5-(trifluoromethyl)-1,3,4-oxadiazole], for which the AC50 is more than 5000 nM.

As for `FC(F)Oc1cccn2nc([C@@H]3c4nc[nH]c4CCN3c3nnc(C(F)(F)F)o3)cc12` [Example 2155, (S)-2-(4-(4-(difluoromethoxy)pyrazolo[1,5-a]pyridin-2-yl)-1,4,6,7-tetrahydro-5H-imidazo[4,5-c]pyridin-5-yl)-5-(trifluoromethyl)-1,3,4-oxadiazole], the AC50 is less than 500 nM.

For `Fc1cccn2nc([C@@H]3c4nc[nH]c4CCN3c3nnc(-c4cnccn4)o3)cc12` [Example 2159, (S)-2-(4-(4-fluoropyrazolo [1,5-a]pyridin-2-yl)-1,4,6,7-tetrahydro-5H-imidazo[4,5-c]pyridin-5-yl)-5-(pyrazin-2-yl)-1,3,4-oxadiazole], the AC50 lay in the range of 500 to 1000 nM.

The term AC50 denotes the concentration giving half of the maximal activity seen.
